In patent EP0428132A1, “Pradimicin derivatives” (Bristol-Myers Squibb Company, priority 1989, dated 1991) one finds MIC data, which are given here for three compounds.

Converted amounts (≈) assume the structure as drawn. Where only a bound is given, the exact number is not on record here.

Assay [1] relates to Saccharomyces cerevisiae A25803. Description: In vitro antifungal activity, serial agar dilution method (Table 1a). The class given is cell-based. Particulars: YM agar (pH 7.0, Difco), 30°C for 2 days (yeast) or 4 days (filamentous fungi), read-out: MICs, Saccharomyces cerevisiae A25803. The method, then: (§1) The inoculum size was adjusted to 10⁶ cells/ml, and a volume of approximately 0.003 ml of fungal suspension was applied to the surface of the antibiotic containing agar plates with a multiinoculator. After incubation, the lowest concentration of antibiotic causing virtually complete inhibition of fungal growth was determined as the minimum inhibitory concentration (MIC).
On the technique in general: Agar dilution tests growth on a series of plates holding different concentrations.

Assay [2] concerns Candida pseudotropicalis A25802. The assay is described as above. Type of assay: cell-based. The settings on record: Kluyveromyces marxianus, YM agar (pH 7.0, Difco), 30°C for 2 days (yeast) or 4 days (filamentous fungi), read-out: MICs, Candida pseudotropicalis A25802. As to the method: as §1
A further assay relates to Candida albicans A25578. Described as above. Particulars: A25578, YM agar (pH 7.0, Difco), 30°C for 2 days (yeast) or 4 days (filamentous fungi), read-out: MICs, Candida albicans A25578. Type of assay: cell-based. The method, then:
as §1

The subject of assay [3] is Candida tropicalis A25809. Described as above. The class given is cell-based. The settings on record: YM agar (pH 7.0, Difco), 30°C for 2 days (yeast) or 4 days (filamentous fungi), read-out: MICs, Candida tropicalis A25809. As to the method: as §1
Assay [4] has as its system Candida tropicalis A25812. The description is as above. The class given is cell-based. Particulars: A25812, YM agar (pH 7.0, Difco), 30°C for 2 days (yeast) or 4 days (filamentous fungi), read-out: MICs, Candida tropicalis A25812. The method, then:
as §1

Assay [5] relates to Microsporum gypseum WW1107. The description is as above. The class given is cell-based. Particulars: Nannizzia gypsea, YM agar (pH 7.0, Difco), 30°C for 2 days (yeast) or 4 days (filamentous fungi), read-out: MICs, Microsporum gypseum WW1107. As to the method: as §1
The subject of assay [6] is Candida paratropicalis A25825. Described as above. The class given is cell-based. The settings on record: YM agar (pH 7.0, Difco); 30°C for 2 days (yeast) or 4 days (filamentous fungi); read-out: MICs, Candida paratropicalis A25825. The method, then: as §1
For assay [7], the system named is Microsporum canis WW10218. The assay is described as above. The class given is cell-based. Particulars: WW10218, pH 7, read-out: MICs, Microsporum canis WW10218. As to the method: as §1
Assay [8] concerns Candida albicans A9540. The assay is described as above. The class given is cell-based. The settings on record: A9540, YM agar (pH 7.0, Difco), 30°C for 2 days (yeast) or 4 days (filamentous fungi), read-out: MICs, Candida albicans A9540. As to the method: as §1
Assay [9] deals with Cryptococcus neoformans A15053. The description is as above. Type of assay: cell-based. The settings on record: A15053, YM agar (pH 7.0, Difco), 30°C for 2 days (yeast) or 4 days (filamentous fungi), read-out: MICs, Cryptococcus neoformans A15053. The method, then: as §1
Assay [10] has as its system Trichophyton rubrum A26761. The description is as above. The class given is cell-based. Particulars: A26761, pH 7, read-out: MICs, Trichophyton rubrum A26761. As to the method:
as §1

Assay [11] relates to Trichophyton mentagrophytes A26771. Described as above. Type of assay: cell-based. The settings on record: A26771, YM agar (pH 7.0, Difco), 30°C for 2 days (yeast) or 4 days (filamentous fungi), read-out: MICs, Trichophyton mentagrophytes A26771. As to the method: as §1
In another assay the test system is FA21436. Description: In vitro antifungal activity, serial agar dilution method (Table 1). Type of assay: cell-based, Asoergukkys flavus. Particulars: 40 h, pH 7, read-out: MIC, Asoergukkys flavus FA21436. The method, then:
(§2) The inoculum size was adjusted to 10⁶ cells/ml, and a volume of approximately 0.003 ml of fungal suspension was applied to the surface of the antibiotic containing agar plates with a multiinoculator. After incubation, the lowest concentration of antibiotic causing virtually complete inhibition of fungal growth was determined as the minimum inhibitory concentration (MIC). Table 1. [table]

The next assay relates to Candida albicans IAM4888. The description is as above. The class given is cell-based. Particulars: Candida albicans, IAM4888; Sabouraud dextrose agar (pH 7.0); 28°C for 40 hours. As to the method: as §2
Assay [12] relates to Cryptococcus neoformans IAM4514. Described as above. Type of assay: cell-based. Particulars: Cryptococcus neoformans, IAM4514; Sabouraud dextrose agar (pH 7.0); 28°C for 40 hours. The method, then:
as §2

Assay [13] has as its system Blastomyces dermatidis D40. The description is as above. Type of assay: cell-based. The settings on record: Blastomyces, D40, 40 h, pH 7, read-out: MIC, Blastomyces dermatidis D40. The method, then:
as §2

Assay [14] has as its system Sprotricosis schenckii IFO8158. Described as above. The class given is cell-based. The settings on record: 40 h, pH 7, read-out: MIC, Sprotricosis schenckii IFO8158. As to the method:
as §2

Assay [15] concerns Petriellidium boydii IFO8078. The assay is described as above. Type of assay: cell-based. Particulars: Scedosporium boydii, IFO8078; Sabouraud dextrose agar (pH 7.0); 28°C for 40 hours. As to the method:
as §2

Assay [16] relates to Aspergillus fumigatus IAM2530. Described as above. Particulars: Aspergillus fumigatus, IAM2530; Sabouraud dextrose agar (pH 7.0); 28°C for 40 hours. Type of assay: cell-based. The method, then:
as §2

The subject of assay [17] is Trichophyton mentagrophytes #4329. The assay is described as above. The settings on record: Trichophyton mentagrophytes; Sabouraud dextrose agar (pH 7.0); 28°C for 40 hours. The class given is cell-based. As to the method: as §2
The test system of assay [18] is Trichophyton mentagrophytes D155. The assay is described as above. The class given is cell-based. The settings on record: Trichophyton mentagrophytes, D155; Sabouraud dextrose agar (pH 7.0); 28°C for 40 hours. The method, then: as §2
The subject of assay [19] is Aspergillus fumigatus IAM2034. The description is as above. Type of assay: cell-based. Particulars: Aspergillus fumigatus, IAM2034; Sabouraud dextrose agar (pH 7.0); 28°C for 40 hours. As to the method:
as §2

The subject of assay [20] is Cryptococcus neoformans D49. The assay is described as above. The settings on record: Cryptococcus neoformans, D49, 40 h, pH 7, read-out: MIC, Cryptococcus neoformans D49. Type of assay: cell-based. The method, then: as §2
Assay [21] has as its system Candida albicans A9540. The description is as above. Type of assay: cell-based. Particulars: Candida albicans, A9540; Sabouraud dextrose agar (pH 7.0); 28°C for 40 hours. The method, then:
as §2

The subject of assay [22] is Fusarium moniliforme A2284. The assay is described as above. Type of assay: cell-based. Particulars: Fusarium verticillioides, A2284; Sabouraud dextrose agar (pH 7.0); 28°C for 40 hours. As to the method: as §2
A further assay concerns Mucor spinosus IFO5317. The description is as above. The class given is cell-based. The settings on record: Mucor spinosus, IFO5317; Sabouraud dextrose agar (pH 7.0); 28°C for 40 hours. As to the method:
as §2

`COc1cc(O)c2c(c1)C(=O)c1c(cc3c(c1O)-c1c(cc(C)c(C(=O)N[C@H](C)C(=O)O)c1O)[C@H](O[C@@H]1O[C@H](C)[C@H](N(C)C(N)=O)[C@H](O)[C@H]1O)[C@H]3O)C2=O` [Ex. 17, N-carbamyl pradimicin B]: the MIC was found to be 1.6 µg/mL (≈ 2.13 µM) in assay [1]; 1.6 µg/mL (≈ 2.13 µM) in assay [2]; 3.2 µg/mL (≈ 4.26 µM) in the assay with Candida albicans A25578; 1.6 µg/mL (≈ 2.13 µM) in [3]; 6.3 µg/mL (≈ 8.38 µM) in assay [4]; 25 µg/mL (≈ 33.3 µM) in assay [5]. The MIC in assay [6] is 6.3 µg/mL (≈ 8.38 µM); in assay [7], 25 µg/mL (≈ 33.3 µM); with Candida albicans A9540 [8], 6.3 µg/mL (≈ 8.38 µM); in [9], 6.3 µg/mL (≈ 8.38 µM); in assay [10], 25 µg/mL (≈ 33.3 µM); in assay [11], 25 µg/mL (≈ 33.3 µM).
On to `COC(=O)/C=C/CN(C)[C@@H]1[C@H](O[C@@H]2OC[C@@H](O)[C@H](O)[C@H]2O)[C@@H](O)[C@H](O[C@H]2c3cc(C)c(C(=O)N[C@H](C)C(=O)O)c(O)c3-c3c(cc4c(c3O)C(=O)c3cc(OC)cc(O)c3C4=O)[C@@H]2O)O[C@@H]1C` [compound 12, N-(trans-3-methoxycarbonyl-2-propenyl) pradimicin A], for which the MIC was 25 µg/mL (≈ 26.6 µM) in the assay on FA21436; 25 µg/mL (≈ 26.6 µM) in the assay with Candida albicans IAM4888; 6.3 µg/mL (≈ 6.71 µM) in assay [12]; > 25 µg/mL in assay [13]; 12.5 µg/mL (≈ 13.3 µM) in assay [14]; > 25 µg/mL in assay [15]. The MIC in assay [16] was 12.5 µg/mL (≈ 13.3 µM); in [17] it was 25 µg/mL (≈ 26.6 µM); in [18], 12.5 µg/mL (≈ 13.3 µM); in assay [19] it was 12.5 µg/mL (≈ 13.3 µM); in assay [20], 6.3 µg/mL (≈ 6.71 µM); with Candida albicans A9540 [21] it was > 25 µg/mL. Further, the MIC (in assay [22]; in the assay on Mucor spinosus IFO5317) was > 25 µg/mL in each case.
Take `COc1cc(O)c2c(c1)C(=O)c1c(cc3c(c1O)-c1c(cc(C)c(C(=O)N[C@H](C)C(=O)O)c1O)[C@H](O[C@@H]1O[C@H](C)[C@H](N(C)C(=O)CN(C)C)[C@H](O[C@@H]4OC[C@@H](O)[C@H](O)[C@H]4O)[C@H]1O)[C@H]3O)C2=O` [Ex. 16, N-(N,N-Dimethylglycyl) pradimicin A]: the MIC was > 50 µg/mL in the assay on FA21436; 6.3 µg/mL (≈ 6.8 µM) against Candida albicans IAM4888; 3.1 µg/mL (≈ 3.35 µM) in [12]; 50 µg/mL (≈ 54 µM) in assay [13]; 6.3 µg/mL (≈ 6.8 µM) in assay [14]; > 50 µg/mL in assay [15]. Further, the MIC is 12.5 µg/mL (≈ 13.5 µM) in [16]; 6.3 µg/mL (≈ 6.8 µM) in assay [17]; 6.3 µg/mL (≈ 6.8 µM) in [18]; 12.5 µg/mL (≈ 13.5 µM) in [19]; 3.4 µg/mL (≈ 3.67 µM) in assay [20]; 6.3 µg/mL (≈ 6.8 µM) against Candida albicans A9540 [21]. Besides, the MIC (in assay [22]; with Mucor spinosus IFO5317) was > 50 µg/mL throughout.
